# Laboratory results as given in patent US20240041042A1, “1-(PYRIDYL)-5-AZINYLPYRAZOLE DERIVATIVES, AND THEIR USE FOR CONTROL OF UNDESIRED PLANT GROWTH” (Bayer Aktiengesellschaft, priority 2020, published 2024).
# Read-outs that look alike come from different tables or passages of the source.
# Tests used:
# Type in all cases: in vivo
# [1] = system: Pharbitis purpurea (PHBPU); assay: Post-emergence herbicidal action against PHBPU
# Method in brief: (§1)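 Greenhouse plants sprayed at the one-leaf stage, 2–3 weeks after sowing, with WP or EC formulations plus 0.5% additive at 600 l/ha water. Activity rated visually after about 3 weeks versus untreated controls (100% = dead, 0% = like control), at 320 g/ha or lower.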
# [2] = system: Avena fatua (AVEFA); assay: Post-emergence herbicidal action against AVEFA; settings: 320 g/ha, visual rating about 3 weeks after treatment
# Method in brief: as §1
# [3] = system: Polygonum convolvulus (POLCO); assay: Pre-emergence herbicidal action against POLCO
# Method in brief: (§2)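 Herbicide applied to soil before seedling emergence, at 600 l/ha spray volume with 0.5% additive and rates up to 320 g/ha. Evaluation: visual percentage effect, about 3 weeks later, greenhouse-grown pots compared with untreated ones.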
# [4] = system: Avena fatua (AVEFA); assay: Pre-emergence herbicidal action against AVEFA; settings: 320 g/ha, visual scoring after about 3 weeks vs untreated controls
# Method in brief: as §2
# [5] = system: Zea mays (ZEAMX); settings: crop plant compatibility, 80 g/ha, effect vs untreated controls
# Method in brief: (§3)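 Foliar application at the one-leaf stage: WP/EC formulation, 0.5% additive, 600 l/ha water. Greenhouse-grown in sandy loam. Endpoint is visual % injury relative to untreated controls at about 3 weeks.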
# [6] = system: Oryza sativa (ORYSA); settings: crop plant compatibility
# Method in brief: as §3
# [7] = system: Echinochloa crus-galli (ECHCG); assay: Post-emergence herbicidal action against ECHCG
# Method in brief: as §1
# [8] = system: Alopecurus myosuroides (ALOMY); assay: Pre-emergence herbicidal action against ALOMY; settings: 320 g/ha; scored visually after about 3 weeks; 100% = plants have died
# Method in brief: as §2
# [9] = system: Lolium rigidum (LOLRI); assay: Post-emergence herbicidal action against LOLRI; settings: dosage 320 g/ha
# Method in brief: as §1
# [10] = system: Alopecurus myosuroides (ALOMY); assay: Post-emergence herbicidal action against ALOMY; settings: 320 g/ha, visual rating about 3 weeks after treatment vs untreated controls (100% = plants have died, 0% = like control plants)
# Method in brief: as §1
# [11] = system: Zea mays (ZEAMX); settings: pre-emergence, crop plant compatibility, in comparison to untreated controls
# Method in brief: (§4)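 Scoring: visual, % of untreated control, about 3 weeks after a pre-emergence application to the soil surface. Application used WP or EC formulations diluted in water with 0.5% additive at 600 l/ha; dosage levels are marked by suffixes a, b and c.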
# [12] = system: Glycine max (GLXMA); settings: pre-emergence, 80 g/ha, crop plant compatibility, in comparison to untreated controls
# Method in brief: as §4
# [13] = system: Oryza sativa (ORYSA); settings: pre-emergence, crop plant compatibility, in comparison to untreated controls
# Method in brief: as §4
# [14] = system: Brassica napus (BRSNW); settings: 80 g/ha, crop plant compatibility, in comparison to untreated controls
# Method in brief: as §4
# [15] = system: Viola tricolor (VIOTR); assay: Pre-emergence herbicidal action against VIOTR
# Method in brief: as §2
# [16] = system: Lolium rigidum (LOLRI); assay: Pre-emergence herbicidal action against LOLRI; settings: dosage 320 g/ha
# Method in brief: as §2
# [17] = system: Setaria viridis (SETVI); assay: Pre-emergence herbicidal action against SETVI; settings: dosage 320 g/ha
# Method in brief: as §2
# [18] = system: Triticum aestivum (TRZAS); settings: crop plant compatibility, effect vs untreated controls
# Method in brief: as §3
# [19] = system: Triticum aestivum (TRZAS); settings: pre-emergence, 80 g/ha, crop plant compatibility, in comparison to untreated controls
# Method in brief: as §4
# [20] = system: Abutilon theophrasti (ABUTH); assay: Post-emergence herbicidal action against ABUTH; settings: visual rating about 3 weeks after treatment vs untreated controls (100% = plants have died, 0% = like control plants)
# Method in brief: as §1
# [21] = system: Amaranthus retroflexus (AMARE); assay: Post-emergence herbicidal action against AMARE
# Method in brief: as §1
# [22] = system: Verconica persica (VERPE); assay: Post-emergence herbicidal action against VERPE; settings: 320 g/ha, VERPE
# Method in brief: as §1
# [23] = system: Polygonum convolvulus (POLCO); assay: Post-emergence herbicidal action against POLCO
# Method in brief: as §1
# [24] = system: Matricaria inodora (MATIN); assay: Post-emergence herbicidal action against MATIN
# Method in brief: as §1
# [25] = system: Setaria viridis (SETVI); assay: Post-emergence herbicidal action against SETVI
# Method in brief: as §1
# [26] = system: Abutilon theophrasti (ABUTH); assay: Pre-emergence herbicidal action against ABUTH; settings: Dosage column 320 g/ha (title prints 3200 g/ha); scored visually after about 3 weeks; 100% = plants have died
# Method in brief: as §2
# [27] = system: Viola tricolor (VIOTR); assay: Post-emergence herbicidal action against VIOTR
# Method in brief: as §1
# [28] = system: Echinochloa crus-galli (ECHCG); assay: Pre-emergence herbicidal action against ECHCG; settings: dosage 320 g/ha
# Method in brief: as §2
# [29] = system: Matricaria inodora (MATIN); assay: Pre-emergence herbicidal action against MATIN
# Method in brief: as §2
# [30] = system: Amaranthus retroflexus (AMARE); assay: Pre-emergence herbicidal action against AMARE; settings: visual scoring after about 3 weeks vs untreated controls
# Method in brief: as §2
# [31] = system: Digitaria sanguinalis (DIGSA); assay: Post-emergence herbicidal action against DIGSA; settings: 320 g/ha, visual rating about 3 weeks after treatment
# Method in brief: as §1
# [32] = system: Digitaria sanguinalis (DIGSA); assay: Pre-emergence herbicidal action against DIGSA; settings: dosage 320 g/ha
# Method in brief: as §2
# [33] = 80 g/ha, effect in comparison to untreated controls
# [34] = 80 g/ha, visual rating about 3 weeks after treatment vs untreated controls (100% = plants have died, 0% = like control plants)
# [35] = 320 g/ha, visual rating about 3 weeks after treatment
Post-emergence action against ZEAMX in % [5],"Post-emergence action against ORYSA in % [6, 33]",Pre-emergence action against ZEAMX in % ([11]; 80 g/ha),Pre-emergence action against GLXMA in % [12],Pre-emergence action against ORYSA in % ([13]; 80 g/ha),Pre-emergence action against BRSNW in % [14],Pre-emergence action against TRZAS in % [19],Compound,Post-emergence action against PHBPU in % ([1]; dosage 320 g/ha),Post-emergence action against AVEFA in % [2],Pre-emergence action against POLCO in % ([3]; dosage 320 g/ha),Pre-emergence action against AVEFA in % [4],Post-emergence action against ECHCG in % ([7]; dosage 320 g/ha),Pre-emergence action against ALOMY [8],Post-emergence action against LOLRI in % [9],Post-emergence action against ALOMY in % [10],"Pre-emergence action against VIOTR in % ([15]; 320 g/ha, Viola tricolor)",Pre-emergence action against LOLRI in % [16],Pre-emergence action against SETVI in % [17],Post-emergence action against ABUTH in % ([20]; 80 g/ha),"Post-emergence action against AMARE in % [21, 34]",further results
20%,0%,20%,0%,0%,0%,,CCOC(=O)C(C)Oc1nn(-c2ccccn2)c(-c2ccc(F)nc2)c1Br (racemic) [Example I-58],80%,90%,90%,80%,80%,90%,80%,90%,80%,80%,,,,
,20%,0%,0%,0%,,0%,CCOC(=O)COc1nn(-c2ccccn2)c(-c2ccc(F)nc2)c1C1CC1 [Example I-78],,,,,,90%,,,80%,,80%,80%,80%,"Post-emergence action against TRZAS in % ([18]; 20 g/ha): 0%; Post-emergence action against TRZAS in % ([18]; 80 g/ha): 20%; Post-emergence action against ORYSA in % ([6]; 20 g/ha, effect vs untreated controls): 0%; Pre-emergence action against ZEAMX in % ([11]; 320 g/ha): 0%; Pre-emergence action against ORYSA in % ([13]; 320 g/ha): 0%"
,,,0%,,,0%,CCOC(=O)CSc1nn(-c2ccccn2)c(-c2cncc(F)c2)c1Cl [Example I-183],90%,90%,90%,80%,90%,80%,90%,,100%,90%,90%,80%,90%,"Post-emergence action against VERPE in % [22]: 90%; Post-emergence action against POLCO in % ([23]; dosage 320 g/ha): 90%; Post-emergence action against PHBPU in % ([1]; dosage 80 g/ha): 80%; Post-emergence action against MATIN in % ([24]; dosage 80 g/ha): 80%; Post-emergence action against MATIN in % ([24]; dosage 320 g/ha): 80%; Post-emergence action against SETVI in % ([25]; dosage 80 g/ha): 90%; Post-emergence action against SETVI in % ([25]; dosage 320 g/ha): 90%; Pre-emergence action against POLCO in % ([3]; dosage 80 g/ha): 80%; Pre-emergence action against ABUTH [26]: 80%; Post-emergence action against VIOTR in % ([27]; 80 g/ha): 90%; Post-emergence action against VIOTR in % ([27]; 320 g/ha): 90%; Post-emergence action against ECHCG in % ([7]; dosage 80 g/ha): 90%; Post-emergence action against ABUTH in % ([20]; 320 g/ha): 80%; Pre-emergence action against VIOTR in % ([15]; dosage 80 g/ha): 80%; Pre-emergence action against ECHCG in % [28]: 100%; Pre-emergence action against MATIN in % ([29]; dosage 80 g/ha): 90%; Pre-emergence action against MATIN in % ([29]; dosage 320 g/ha): 90%; Pre-emergence action against AMARE in % ([30]; 80 g/ha): 80%; Pre-emergence action against AMARE in % ([30]; 320 g/ha): 100%; Post-emergence action against AMARE in % [21, 35]: 90%"
10%,0%,0%,0%,,20%,,COC(=O)[C@@H](C)Oc1nn(-c2ccccn2)c(-c2ccc(Cl)nc2)c1Br [Example I-242],80%,80%,80%,,,80%,80%,80%,100%,90%,,,,"Post-emergence action against POLCO in % ([23]; dosage 80 g/ha): 80%; Post-emergence action against POLCO in % ([23]; dosage 320 g/ha): 80%; Post-emergence action against PHBPU in % ([1]; dosage 80 g/ha): 80%; Post-emergence action against VIOTR in % ([27]; 80 g/ha): 80%; Post-emergence action against VIOTR in % ([27]; 320 g/ha): 80%; Post-emergence action against DIGSA in % [31]: 80%; Post-emergence action against ORYSA in % ([6]; 320 g/ha, effect in comparison to untreated controls): 0%; Pre-emergence action against DIGSA in % [32]: 90%; Pre-emergence action against AMARE in % ([30]; 320 g/ha): 100%; Post-emergence action against AMARE in % [21, 35]: 80%"
